Source: ChEMBL document CHEMBL5247622, “Structural optimization of Imidazo[1, 2-a]pyridine derivatives for the treatment of gastric cancer via STAT3 signaling pathway” (Eur J Med Chem, 2022)
Activity calls are given as the source filed them. No cut-off for these calls is given here.

Assays:
MGC-803 [1] = assay: Inhibition of colony formation in human MGC-803 cells at 0.3 to 3 uM incubated for 10 to 15 days by crystal violet staining based assay; type: functional, cell-based; settings: dose 0.3-3 µM, time 10-15 day
MGC-803 [2] = assay: Antitumor activity against human MGC-803 cells xenografted in BALB/c mouse assessed as reduction of Ki67 expression level in tumor at 5 mg/kg,ip administrated for 21 consecutive days by immunohistochemistry analysis; type: functional, organism-based
[3] = molecular target: Signal transducer and activator of transcription 3 (Homo sapiens) (UniProt P40763); assay: Thermal stabilization of STAT3 in human AGS cells at 1 uM at 37 to 54 degreeC incubated for 1 hr by cellular thermal shift assay; type: cell-based
Chain of Signal transducer and activator of transcription 3 (Homo sapiens) (P40763 whole entry): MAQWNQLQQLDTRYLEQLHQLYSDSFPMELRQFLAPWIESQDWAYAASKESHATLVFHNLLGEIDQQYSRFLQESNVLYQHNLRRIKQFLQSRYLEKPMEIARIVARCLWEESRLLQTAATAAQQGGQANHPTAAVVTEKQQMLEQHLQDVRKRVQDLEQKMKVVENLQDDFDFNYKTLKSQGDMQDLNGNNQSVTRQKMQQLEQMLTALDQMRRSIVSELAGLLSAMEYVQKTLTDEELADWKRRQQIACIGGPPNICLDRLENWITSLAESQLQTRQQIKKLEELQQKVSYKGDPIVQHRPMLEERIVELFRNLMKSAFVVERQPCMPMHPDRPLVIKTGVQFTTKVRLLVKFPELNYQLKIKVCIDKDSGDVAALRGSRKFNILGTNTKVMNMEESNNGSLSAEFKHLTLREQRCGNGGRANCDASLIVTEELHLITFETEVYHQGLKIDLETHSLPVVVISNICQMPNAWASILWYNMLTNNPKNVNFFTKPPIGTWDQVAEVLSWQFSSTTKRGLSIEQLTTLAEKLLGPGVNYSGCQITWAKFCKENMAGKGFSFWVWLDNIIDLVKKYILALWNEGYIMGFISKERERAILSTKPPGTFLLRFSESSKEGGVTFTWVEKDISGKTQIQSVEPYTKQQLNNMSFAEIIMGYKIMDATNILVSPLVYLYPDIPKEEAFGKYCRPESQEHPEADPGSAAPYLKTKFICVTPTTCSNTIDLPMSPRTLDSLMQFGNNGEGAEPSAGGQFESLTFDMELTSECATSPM

[4] = molecular target: Signal transducer and activator of transcription 3 (Homo sapiens) (UniProt P40763); assay: In vivo inhibition of STAT3 in BALB/c mouse xenografted with human MGC-803 cells assessed as reduction of STAT3 phosphorylation level at Tyr705 in tumor at 15 mg/kg,ip administrated for 21 consecutive days by immunohistochemistry analysis; type: functional, organism-based
AGS [5] = assay: Inhibition of cell migration in human AGS cells at 0.03 to 0.3 uM incubated for 48 hrs by wound healing assay based microscopic analysis; type: functional; settings: dose 0.03-0.3 µM
[6] = molecular target: Signal transducer and activator of transcription 3 (Homo sapiens) (UniProt P40763); assay: Inhibition of STAT3 in human AGS cells assessed as reduction of Mcl-1 protein expression level at 0.3 to 3 uM by western blot assay; type: cell-based; settings: dose 0.3-3 µM
AGS [7] = assay: Induction of apoptosis in human AGS cells assessed as necrotic cells at 0.3 uM incubated for 48 hrs by Annexin V-FITC/PI staining based flow cytometry method (reference value: 0.32 %); type: functional
MGC-803 [8] = assay: Antitumor activity against human MGC-803 cells xenografted in BALB/c mouse assessed as tumor growth inhibition at 5 mg/kg,ip administrated for 21 consecutive days relative to control; type: functional; settings: read-out: TGI
[9] = Toxicity in BALB/c mouse xenografted with human MGC-803 cells assessed as body weight loss at 5 mg/kg,ip administrated for 21 consecutive days; type: organism-based; settings: in vivo
[10] = Toxicity in BALB/c mouse xenografted with human MGC-803 cells assessed as morphological change in kidney at 5 mg/kg,ip administrated for 21 consecutive days by hematoxylin and eosin staining method; type: organism-based; settings: in vivo
AGS [11] = assay: Induction of apoptosis in human AGS cells assessed as necrotic cells at 3 uM incubated for 48 hrs by Annexin V-FITC/PI staining based flow cytometry method (reference value: 0.32 %); type: functional
[12] = molecular target: Signal transducer and activator of transcription 3 (Homo sapiens) (UniProt P40763); assay: Inhibition of Flag-tagged STAT3 (unknown origin) dimerization transfected in HEK293T cells at 0.3 to 3 uM incubated for 24 hrs followed by IL-6 stimulation and measured after 1 hr by immunoprecipitation assay; type: cell-based; settings: dose 0.3-3 µM, time 25.0 hrs
AGS [13] = assay: Induction of apoptosis in human AGS cells assessed as viable cells at 0.3 uM incubated for 48 hrs by Annexin V-FITC/PI staining based flow cytometry method (reference value: 94.8 %); type: functional; settings: read-out: Activity
AGS [14] = assay: Induction of apoptosis in human AGS cells assessed as early apoptotic cells at 3 uM incubated for 48 hrs by Annexin V-FITC/PI staining based flow cytometry method (reference value: 2.38 %); type: functional
[15] = molecular target: Signal transducer and activator of transcription 3 (Homo sapiens) (UniProt P40763); assay: Inhibition of STAT3 in human AGS cells assessed as inhibition of total STAT3 protein level at 0.3 to 3 uM by western blot assay; type: cell-based; settings: dose 0.3-3 µM
[16] = molecular target: Signal transducer and activator of transcription 3 (Homo sapiens) (UniProt P40763); assay: In vivo inhibition of STAT3 in BALB/c mouse xenografted with human MGC-803 cells assessed as reduction of c-Myc expression in tumor at 15 mg/kg,ip administrated for 21 consecutive days by immunohistochemistry analysis; type: functional, organism-based
[17] = molecular target: Signal transducer and activator of transcription 3 (Homo sapiens) (UniProt P40763); assay: In vivo inhibition of STAT3 in BALB/c mouse xenografted with human MGC-803 cells assessed as reduction of STAT3 phosphorylation level at Tyr705 in tumor at 5 mg/kg,ip administrated for 21 consecutive days by immunohistochemistry analysis; type: functional, organism-based
MGC-803 [18] = assay: Antiproliferative activity against human MGC-803 cells assessed as reduction in cell viability incubated for 72 hrs by CCK-8 assay; type: functional, cell-based; settings: MGC-803, 72 h
[19] = Toxicity in BALB/c mouse xenografted with human MGC-803 cells assessed as morphological change in spleen at 15 mg/kg,ip administrated for 21 consecutive days by hematoxylin and eosin staining method; type: organism-based; settings: in vivo
[20] = molecular target: Signal transducer and activator of transcription 3 (Homo sapiens) (UniProt P40763); assay: Inhibition of STAT3 in human AGS cells assessed as reduction of c-Myc protein expression level at 0.3 to 3 uM by western blot assay; type: cell-based; settings: dose 0.3-3 µM
AGS [21] = assay: Induction of apoptosis in human AGS cells assessed as viable cells at 3 uM incubated for 48 hrs by Annexin V-FITC/PI staining based flow cytometry method (reference value: 94.8 %); type: functional; settings: read-out: Activity
[22] = Toxicity in BALB/c mouse xenografted with human MGC-803 cells assessed as body weight loss at 15 mg/kg,ip administrated for 21 consecutive days; type: organism-based; settings: in vivo
[23] = Toxicity in BALB/c mouse xenografted with human MGC-803 cells assessed as morphological change in heart at 15 mg/kg,ip administrated for 21 consecutive days by hematoxylin and eosin staining method; type: organism-based; settings: in vivo
[24] = molecular target: Signal transducer and activator of transcription 3 (Homo sapiens) (UniProt P40763); assay: In vivo inhibition of STAT3 in BALB/c mouse xenografted with human MGC-803 cells assessed as reduction of Mcl-1 expression in tumor at 5 mg/kg,ip administrated for 21 consecutive days by immunohistochemistry analysis; type: functional, organism-based
[25] = Toxicity in BALB/c mouse xenografted with human MGC-803 cells assessed as morphological change in liver at 5 mg/kg,ip administrated for 21 consecutive days by hematoxylin and eosin staining method; type: organism-based; settings: in vivo
AGS [26] = assay: Induction of apoptosis in human AGS cells assessed as necrotic cells at 1 uM incubated for 48 hrs by Annexin V-FITC/PI staining based flow cytometry method (reference value: 0.32 %); type: functional
[27] = molecular target: Signal transducer and activator of transcription 3 (Homo sapiens) (UniProt P40763); assay: In vivo inhibition of STAT3 in BALB/c mouse xenografted with human MGC-803 cells assessed as reduction of Mcl-1 expression in tumor at 15 mg/kg,ip administrated for 21 consecutive days by immunohistochemistry analysis; type: functional, organism-based
[28] = molecular target: Signal transducer and activator of transcription 3 (Homo sapiens) (UniProt P40763); assay: Inhibition of STAT3 (unknown origin) transcriptional signaling transfected in HEK293T cells at 3 uM incubated for 24 hrs by firefly luciferase gene reporter assay; type: cell-based
MGC-803 [29] = assay: Antitumor activity against human MGC-803 cells xenografted in BALB/c mouse assessed as reduction of Ki67 expression level in tumor at 15 mg/kg,ip administrated for 21 consecutive days by immunohistochemistry analysis; type: functional, organism-based
[30] = molecular target: Signal transducer and activator of transcription 3 (Homo sapiens) (UniProt P40763); assay: Inhibition of STAT3 in human MGC-803 cells assessed as inhibition of total STAT3 protein level at 0.3 to 3 uM by western blot assay; type: cell-based; settings: dose 0.3-3 µM
[31] = molecular target: Signal transducer and activator of transcription 3 (Homo sapiens) (UniProt P40763); assay: Inhibition of STAT3 in human AGS cells assessed as inhibition of STAT3 phosphorylation level at Tyr705 at 0.3 to 3 uM by western blot assay; type: cell-based; settings: dose 0.3-3 µM
AGS [32] = assay: Inhibition of cell invasion in human AGS cells at 0.03 to 0.3 uM incubated for 12 hrs by crystal violet staining based transwell assay; type: functional; settings: dose 0.03-0.3 µM

Activity [3]: Active
inhibition [4]: Active
inhibition [6]: Active
inhibition [12]: Dose-Dependent Effect
inhibition [15]: inactive
inhibition [16]: Active
inhibition [17]: Active
IC50 (MGC-803 [18]): 900 nM
inhibition [20]: Active
inhibition [24]: Active
inhibition [27]: Active
inhibition [28]: Active
inhibition [30]: inactive
inhibition [31]: Dose-Dependent Effect
Compound: Cc1cc(NC(=O)c2ccc([N+](=O)[O-])o2)ccc1-c1cnc2ccccn12
inhibition (MGC-803 [1]): Dose-Dependent Effect
inhibition (MGC-803 [2]): Active
inhibition (AGS [5]): Dose-Dependent Effect
Activity (AGS [7]): 0.62%
inhibition in vivo at 5 mg/kg (MGC-803 [8]): 47.1%
Activity [9]: Non-Toxic
Activity [10]: Non-Toxic
Activity (AGS [11]): 0.18%
viability at 0.3 µM (AGS [13]): 93.7%
Activity (AGS [14]): 12.1%
Activity [19]: Non-Toxic
viability at 3 µM (AGS [21]): 81.3%
Activity [22]: Non-Toxic
Activity [23]: Non-Toxic
Activity [25]: Non-Toxic
Activity (AGS [26]): 0.75%
inhibition (MGC-803 [29]): Active
inhibition (AGS [32]): Active
